Assay results reported in patent publication US5234907A, “Synthetic vasoactive intestinal peptide analogs” (Hoffmann-La Roche Inc., priority 1991, dated 1993).
*1 amine or outer side, *2 acyl side, *3 side chain or, on linkers, in order; H or OH if unused. [ ]: non-standard residue; d: D form. Cys(Acm) = CC(=O)NCSC[C@H](N[*:1])C(=O)[*:2]; Phe(4-NH2) = Nc1ccc(C[C@H](N)C(=O)O)cc1; Nle = CCCC[C@H](N)C(=O)O

Assays:
[1] = tested on: guinea pig tracheal smooth muscle; test: Tracheal relaxant activity of VIP analogs on isolated guinea pig tracheal rings; assay type: cell-based; conditions: cumulative concentration response; responses as % of maximum response to VIP (10^-6 M=100%); at least three tissues pooled; linear regression
Protocol: The relaxant activity of the VIP analogs was studied in a model utilizing guinea pig trachea. [Wasserman, M. A. et al., in Vasoactive Intestinal Peptide, S. I. Said, ed., Raven Press, N.Y. 1982, pp 177-184]; All tissues were taken from male albino guinea pig weighing 400-600 g, anesthesized with urethane (2 g/kg, i.p.). After exanguination, the trachea were removed and divided into four ring segments (3 mm length). Each ring was suspended by 30 gauge stainless steel wires in a 10 mL jacketed tissue bath and attached via 4-0 silk thread to a Grass force displacement transducer (model FT03C, Grass Instruments Co., Quincy, Ma), for isometric recording of tension. The smooth muscle was bathed in modified Krebs solution of the following composition: NaCl, 120 mM; KCl, 4.7 mM; CaCl2, 2.5 mM; MgSO.4 7H2 O, 1.2 mM; NaHCO3, 25 mM; K2 HPO4 monobasic, 1.2 mM; and dextrose, 10 mM. Tissue baths were maintained at 37° C. and constantly bubbled with 95% O2 and 5% CO2. Responses were recorded on an 8 channel and a 4 channel Hewlett-Packard (model 7702B and 7754A, respectively) recorder (Hewlett-Packard, Paramus, N.J.). […] Frequent readjustments of tension were required during the 60 minute stabilization period which followed. Tissues were rinsed at 15 minute intervals.
Cumulative concentration response curves were obtained for each tissue by successive […] increases in the bath concentration of VIP or VIP analogs according to the method of VanRossum [Arch. Int. Pharmacodyn., 143, 299-330 (1963)]. Only one cumulative dose response curve was obtained on a single tissue. To minimize variability between tissues, relaxant responses were expressed as a percentage of the maximum response obtained to VIP (10^-6 M=100%) added at the end of each concentration response experiment. Responses obtained from at least three tissues were pooled and EC50 values were determined by linear regression.

guinea pigs = test: In vivo bronchodilator activity by tracheal instillation against histamine-induced bronchoconstriction; set-up: species or system guinea pig; conditions: 100 μl, anesthetized male Hartley guinea pigs, histamine challenge 50 μg/kg i.v., inhibition of tracheal pressure increase
Protocol: The in vivo bronchodilator activity of VIP analogs in guinea pigs was assessed by the tracheal instillation route of administration. This technique utilized male guinea pigs (Hartley strain, Charles River) weighing 400-600 g. Animals were anesthetized with urethane (2 g/kg) intraperitoneally and a polyethylene cannula was inserted into the jugular vein for intravenous drug administration.
The animals were tracheotomized and dosing solutions of distilled water or test compound dissolved in distilled water were administered into the trachea, approximately three-quarter the distance to the carina with a pipette. The concentration of the dosing solution was adjusted to deliver a constant volume of 100 μl. The animals were placed supine for one minute to aid drug delivery to the lung. One minute later, spontaneous breathing was arrested with succinylcholine chloride (1.2 mg/kg) administered intravenously, and the animals were ventilized with a Harvard Model 680 small animal respirator set at 40 breaths/min and 4.0 cm^3 stoke volume. The animals were challenged with a maximal constrictory dose of histamine (50 μg/kg, i.v.) and tracheal pressure (cm of water) was recorded from a Statham pressure transducer (P 32 AA).
The change in tracheal pressure was averaged for at least 3 control and 3 drug-treated animals and percent inhibition was calculated. The relative potency of compounds administered by the instillation route was determined by administering various doses of test compound and calculating the median inhibitory dose (ID50 value). The ID50 was determined from log dose-reasons curves generated by at least 3 doses that caused inhibitory effects between 10% and 90%. The correlation coefficient for the regression line of each antagonist was always greater than 0.95.
For determination of the time course of inhibition for various compounds, the time between administration of compound and challenge with histamine was varied. The time course of activity was calculated as the time when inhibition decreased to 40%.

“Ac--[Glu^8, Lys^12, Nle^17, Ala^25, Leu^26, Lys^27,28, Gly^29,30, Thr^31 ]--VIP (Ac-HSDAVFTENYTKLRKQ[Nle]AVKKYLNALKKGGT-NH2; SMILES CCCC[C@H](NC(=O)[C@H](CCC(N)=O)NC(=O)[C@H](CCCCN)NC(=O)[C@H](CCCNC(=N)N)NC(=O)[C@H](CC(C)C)NC(=O)[C@H](CCCCN)NC(=O)[C@@H](NC(=O)[C@H](Cc1ccc(O)cc1)NC(=O)[C@H](CC(N)=O)NC(=O)[C@H](CCC(=O)O)NC(=O)[C@@H](NC(=O)[C@H](Cc1ccccc1)NC(=O)[C@@H](NC(=O)[C@H](C)NC(=O)[C@H](CC(=O)O)NC(=O)[C@H](CO)NC(=O)[C@H](Cc1c[nH]cn1)NC(C)=O)C(C)C)[C@@H](C)O)[C@@H](C)O)C(=O)N[C@@H](C)C(=O)N[C@H](C(=O)N[C@@H](CCCCN)C(=O)N[C@@H](CCCCN)C(=O)N[C@@H](Cc1ccc(O)cc1)C(=O)N[C@@H](CC(C)C)C(=O)N[C@@H](CC(N)=O)C(=O)N[C@@H](C)C(=O)N[C@@H](CC(C)C)C(=O)N[C@@H](CCCCN)C(=O)N[C@@H](CCCCN)C(=O)NCC(=O)NCC(=O)N[C@H](C(N)=O)[C@@H](C)O)C(C)C) [Ac--(SEQ ID NO: 16)--NH2]” was tested, and the EC50 [1] was 0.27 nM and the “Bronchodilator activity in guinea pigs, ED50” value (“Bronchodilator activity” below) (guinea pigs) was 0.043 µg.
For “Ac--[Glu^8, Lys^12, Nle^17, Val^26, Thr^28, Gly^29,30, Cys(Acm)^31 ]--VIP (Ac-HSDAVFTENYTKLRKQ[Nle]AVKKYLNSVLTGG[Cys(Acm)]-NH2; SMILES CCCC[C@H](NC(=O)[C@H](CCC(N)=O)NC(=O)[C@H](CCCCN)NC(=O)[C@H](CCCNC(=N)N)NC(=O)[C@H](CC(C)C)NC(=O)[C@H](CCCCN)NC(=O)[C@@H](NC(=O)[C@H](Cc1ccc(O)cc1)NC(=O)[C@H](CC(N)=O)NC(=O)[C@H](CCC(=O)O)NC(=O)[C@@H](NC(=O)[C@H](Cc1ccccc1)NC(=O)[C@@H](NC(=O)[C@H](C)NC(=O)[C@H](CC(=O)O)NC(=O)[C@H](CO)NC(=O)[C@H](Cc1c[nH]cn1)NC(C)=O)C(C)C)[C@@H](C)O)[C@@H](C)O)C(=O)N[C@@H](C)C(=O)N[C@H](C(=O)N[C@@H](CCCCN)C(=O)N[C@@H](CCCCN)C(=O)N[C@@H](Cc1ccc(O)cc1)C(=O)N[C@@H](CC(C)C)C(=O)N[C@@H](CC(N)=O)C(=O)N[C@@H](CO)C(=O)N[C@H](C(=O)N[C@@H](CC(C)C)C(=O)N[C@H](C(=O)NCC(=O)NCC(=O)N[C@@H](CSCNC(C)=O)C(N)=O)[C@@H](C)O)C(C)C)C(C)C) [Ac--(SEQ ID NO: 85)--NH2]”, the EC50 [1] was 0.45 nM and the “Bronchodilator activity” value (guinea pigs) was 2.0 µg.
For “Ac--[Lys^12, Nle^17, Ala^19, Val^26, Thr^28, Ala^29-31 ]--VIP (Ac-HSDAVFTDNYTKLRKQ[Nle]AAKKYLNSVLTAAA-NH2; SMILES CCCC[C@H](NC(=O)[C@H](CCC(N)=O)NC(=O)[C@H](CCCCN)NC(=O)[C@H](CCCNC(=N)N)NC(=O)[C@H](CC(C)C)NC(=O)[C@H](CCCCN)NC(=O)[C@@H](NC(=O)[C@H](Cc1ccc(O)cc1)NC(=O)[C@H](CC(N)=O)NC(=O)[C@H](CC(=O)O)NC(=O)[C@@H](NC(=O)[C@H](Cc1ccccc1)NC(=O)[C@@H](NC(=O)[C@H](C)NC(=O)[C@H](CC(=O)O)NC(=O)[C@H](CO)NC(=O)[C@H](Cc1c[nH]cn1)NC(C)=O)C(C)C)[C@@H](C)O)[C@@H](C)O)C(=O)N[C@@H](C)C(=O)N[C@@H](C)C(=O)N[C@@H](CCCCN)C(=O)N[C@@H](CCCCN)C(=O)N[C@@H](Cc1ccc(O)cc1)C(=O)N[C@@H](CC(C)C)C(=O)N[C@@H](CC(N)=O)C(=O)N[C@@H](CO)C(=O)N[C@H](C(=O)N[C@@H](CC(C)C)C(=O)N[C@H](C(=O)N[C@@H](C)C(=O)N[C@@H](C)C(=O)N[C@@H](C)C(N)=O)[C@@H](C)O)C(C)C) [Ac--(SEQ ID NO: 10)--NH2]”, the EC50 [1] was 0.3 nM and the “Bronchodilator activity” value (guinea pigs) was 0.82 µg.
For “Ac--[Ala^2, Lys^12, Nle^17, Ala^25, Leu^26, Lys^27,28, Gly^29,30, Thr^31 ]--VIP (Ac-HADAVFTDNYTKLRKQ[Nle]AVKKYLNALKKGGT-NH2; SMILES CCCC[C@H](NC(=O)[C@H](CCC(N)=O)NC(=O)[C@H](CCCCN)NC(=O)[C@H](CCCNC(=N)N)NC(=O)[C@H](CC(C)C)NC(=O)[C@H](CCCCN)NC(=O)[C@@H](NC(=O)[C@H](Cc1ccc(O)cc1)NC(=O)[C@H](CC(N)=O)NC(=O)[C@H](CC(=O)O)NC(=O)[C@@H](NC(=O)[C@H](Cc1ccccc1)NC(=O)[C@@H](NC(=O)[C@H](C)NC(=O)[C@H](CC(=O)O)NC(=O)[C@H](C)NC(=O)[C@H](Cc1c[nH]cn1)NC(C)=O)C(C)C)[C@@H](C)O)[C@@H](C)O)C(=O)N[C@@H](C)C(=O)N[C@H](C(=O)N[C@@H](CCCCN)C(=O)N[C@@H](CCCCN)C(=O)N[C@@H](Cc1ccc(O)cc1)C(=O)N[C@@H](CC(C)C)C(=O)N[C@@H](CC(N)=O)C(=O)N[C@@H](C)C(=O)N[C@@H](CC(C)C)C(=O)N[C@@H](CCCCN)C(=O)N[C@@H](CCCCN)C(=O)NCC(=O)NCC(=O)N[C@H](C(N)=O)[C@@H](C)O)C(C)C) [Ac--(SEQ ID NO: 20)--NH2]”, the EC50 [1] was 0.44 nM and the “Bronchodilator activity” value (guinea pigs) was 0.05 µg.
For “Ac--[p-NH2 --Phe^10, Lys^12, Nle^17, Val^26, Thr^28 ]--VIP (Ac-HSDAVFTDN[Phe(4-NH2)]TKLRKQ[Nle]AVKKYLNSVLT-NH2; SMILES CCCC[C@H](NC(=O)[C@H](CCC(N)=O)NC(=O)[C@H](CCCCN)NC(=O)[C@H](CCCNC(=N)N)NC(=O)[C@H](CC(C)C)NC(=O)[C@H](CCCCN)NC(=O)[C@@H](NC(=O)[C@H](Cc1ccc(N)cc1)NC(=O)[C@H](CC(N)=O)NC(=O)[C@H](CC(=O)O)NC(=O)[C@@H](NC(=O)[C@H](Cc1ccccc1)NC(=O)[C@@H](NC(=O)[C@H](C)NC(=O)[C@H](CC(=O)O)NC(=O)[C@H](CO)NC(=O)[C@H](Cc1c[nH]cn1)NC(C)=O)C(C)C)[C@@H](C)O)[C@@H](C)O)C(=O)N[C@@H](C)C(=O)N[C@H](C(=O)N[C@@H](CCCCN)C(=O)N[C@@H](CCCCN)C(=O)N[C@@H](Cc1ccc(O)cc1)C(=O)N[C@@H](CC(C)C)C(=O)N[C@@H](CC(N)=O)C(=O)N[C@@H](CO)C(=O)N[C@H](C(=O)N[C@@H](CC(C)C)C(=O)N[C@H](C(N)=O)[C@@H](C)O)C(C)C)C(C)C) [Ac--(SEQ ID NO: 54)--NH2]”, the EC50 [1] was 0.36 nM and the “Bronchodilator activity” value (guinea pigs) was 2.0 µg.
With “Ac--[Lys^12, Nle^17, Ala^19, Val^26, Thr^28, Gly^29, Lys^30 ]--VIP (Ac-HSDAVFTDNYTKLRKQ[Nle]AAKKYLNSVLTGK-NH2; SMILES CCCC[C@H](NC(=O)[C@H](CCC(N)=O)NC(=O)[C@H](CCCCN)NC(=O)[C@H](CCCNC(=N)N)NC(=O)[C@H](CC(C)C)NC(=O)[C@H](CCCCN)NC(=O)[C@@H](NC(=O)[C@H](Cc1ccc(O)cc1)NC(=O)[C@H](CC(N)=O)NC(=O)[C@H](CC(=O)O)NC(=O)[C@@H](NC(=O)[C@H](Cc1ccccc1)NC(=O)[C@@H](NC(=O)[C@H](C)NC(=O)[C@H](CC(=O)O)NC(=O)[C@H](CO)NC(=O)[C@H](Cc1c[nH]cn1)NC(C)=O)C(C)C)[C@@H](C)O)[C@@H](C)O)C(=O)N[C@@H](C)C(=O)N[C@@H](C)C(=O)N[C@@H](CCCCN)C(=O)N[C@@H](CCCCN)C(=O)N[C@@H](Cc1ccc(O)cc1)C(=O)N[C@@H](CC(C)C)C(=O)N[C@@H](CC(N)=O)C(=O)N[C@@H](CO)C(=O)N[C@H](C(=O)N[C@@H](CC(C)C)C(=O)N[C@H](C(=O)NCC(=O)N[C@@H](CCCCN)C(N)=O)[C@@H](C)O)C(C)C) [Ac--(SEQ ID NO: 11)--NH2]” the EC50 [1] was 0.58 nM and the “Bronchodilator activity” value (guinea pigs) was 0.58 µg.
